According to patent publication US20220009918A1, “Chemical Compounds” (GlaxoSmithKline Intellectual Property Development Limited, priority 2018, published 2022):

Target: T1, human H-PGDS (Homo sapiens, UniProt O60760)
T1 construct: Full length human H-PGDS cDNA (Invitrogen Ultimate ORF IOH13026) was amplified by PCR; 6-His (N); TEV protease cleavage site (N); made in house; host or cells: E. coli BL21 (DE3*) for H-PGDS; Sf9 insect cells (baculovirus) for COX-2
Experiment: H-PGDS RapidFire high throughput mass spectrometry assay
Type: biochemical
Details: inhibition of conversion of PGH2 to PGD2 by H-PGDS
Protocol: H-PGDS RapidFire™ High Throughput Mass Spectrometry Assay
The H-PGDS RapidFire™ mass spectrometric assay monitors conversion of prostaglandin H2 (PGH2) to prostaglandin D2 (PGD2) by haematopoietic prostaglandin D synthase (H-PGDS). In the assay format described here, the substrate (PGH2) is formed in situ by the action of cyclooxygenase-2 on arachidonic acid. This first step is set up to be fast, and generates a burst of PGH2 at ˜10 μM. The PGH2 is then further converted to PGD2 by the H-PGDS enzyme. […] Plates are then read on the RapidFire™ high throughput solid phase extraction system (Agilent) which incorporates a solid phase extraction step coupled to a triple quadrupole mass spectrometer (AB SCIEX). Relative levels of PGD2 and PGF2α, which acts as a surrogate for substrate, are measured and a percent conversion calculated. Inhibitors are characterised as compounds which lower the conversion of PGH2 to PGD2.
Full length human H-PGDS cDNA (Invitrogen Ultimate ORF IOH13026) was amplified by PCR with the addition of a 5′ 6-His tag and TEV protease cleavage site. The PCR product was digested with NdeI and XhoI and ligated into pET22b+ (Merck Novagen®). Expression was carried out in E. coli strain BL21 (DE3*) using auto-induction Overnight Express™ Instant TB medium (Merck Novagen®) supplemented with 1% glycerol. The culture was first grown at 37° C. and the temperature was reduced to 25° C. when OD600 reached 2.0. Cells were harvested by centrifugation after a further 18 hours. 10 g of E. coli cell pellet was suspended to a total volume of 80 mL in lysis buffer (20 mM Tris-Cl pH 7.5, 300 mM NaCl, 20 mM imidazole, 5 mM p-mercaptoethanol, 10% glycerol). 1 mg/mL protease inhibitors (Protease Inhibitor Cocktail Set III, Merck Calbiochem®) and 1 mg/mL lysozyme were added to the cell suspension. The suspension was then sonicated for 5 min (UltraSonic Processor VCX 750, Cole-Parmer Instrument Co.) with a micro probe (50% amplitude, 10 sec on/off) and then centrifuged at 100,000 g for 90 minutes (at 4° C.). The supernatant was loaded onto a Ni-NTA HiTrap column (5 mL, GE Healthcare, pre-equilibrated in lysis buffer). The column was washed with 10 column volumes of lysis buffer and eluted with lysis buffer containing 500 mM imidazole. The pooled protein peak fractions were concentrated using a 10 kDa centrifugal filter at 3500 g and 4° C. (Amicon Ultra-15 centrifugal filter unit with Ultracel-10 membrane from Millipore). Further purification of the concentrated protein was carried out using gel filtration chromatography on a HiLoad 26/600 Superdex 75 preparative grade column (GE Healthcare Life Sciences) using 50 mM Tris pH 7.5, 50 mM NaCl, 1 mM dithiothreitol, 1 mM MgCl2. Fractions containing the protein were pooled, concentrated as described above, and stored at −80° C.
The full length human COX-2 gene (accession number L15326) was amplified by PCR to generate an EcoRI—HindIII fragment containing an in-frame FLAG tag. This was subcloned into pFastBac 1 (Invitrogen). The COX-2 FLAG plasmid was recombined into the baculovirus genome according to the BAC-to-BAC protocol described by Invitrogen. Transfection into Spodoptera frugiperda (Sf9) insect cells was performed using Cellfectin (Invitrogen), according to the manufacturer's protocol. Super Sf9 cells were cultured in EX420 media (SAFC Biosciences) to a density of approximately 1.5×10^6 cells/mL within a wave bioreactor. Recombinant virus was added at a Multiplicity of Infection (MOI) of 5 and the culture was allowed to continue for 3 days. Cells were harvested using a continuous feed centrifuge run at 2500 g at a rate of approximately 2 L/min with cooling. The resultant cell slurry was re-centrifuged in pots (2500 g, 20 min, 4° C.) and the cell paste was stored at −80° C. […]

T1 sequence (O60760 whole entry): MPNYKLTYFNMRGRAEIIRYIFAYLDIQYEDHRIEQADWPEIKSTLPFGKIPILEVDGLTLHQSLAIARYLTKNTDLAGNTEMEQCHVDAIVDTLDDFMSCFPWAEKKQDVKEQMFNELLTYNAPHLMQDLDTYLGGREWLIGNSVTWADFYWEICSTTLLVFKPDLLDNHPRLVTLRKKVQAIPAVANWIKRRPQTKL

Compound | Potency Range (mean pIC50)
C[C@H]1CNC(=O)[C@H]1NC(=O)c1cnc(-c2cc(F)cc(Cl)c2)s1 (racemic) [Example 74, Racemic cis-2-(3-Chloro-5-fluorophenyl)-N-(4-methyl-2-oxopyrrolidin-3-yl)thiazole-5-carboxamide] | *** (*** = pIC50 7.00-7.99)

Same assay, conditions: inhibition of conversion of PGH2 to PGD2 by H-PGDS; mean pIC50; read-out: Potency Range (mean pIC50) (converted)

Compound | IC50
C[C@@H]1CNC(=O)[C@H]1NC(=O)c1cnc(-c2cc(F)cc(C(F)F)c2)s1 [Example 13, 2-(3-(Difluoromethyl)-5-fluorophenyl)-N-((3S,4R)-4-methyl-2-oxopyrrolidin-3-yl)thiazole-5-carboxamide] | 1.02 to 10 nM
O=C(N[C@H]1CC2(COC2)NC1=O)c1cnc(-c2cc(F)cc(Cl)c2)s1 [Example 57, (S)-2-(3-Chloro-5-fluorophenyl)-N-(6-oxo-2-oxa-5-azaspiro[3.4]octan-7-yl)thiazole-5-carboxamide] | 1.02 to 10 nM
Cc1cn(-c2ncc(C(=O)N[C@H]3CCNC3=O)s2)cn1 [Example 32, (S)-2-(4-Methyl-1H-imidazol-1-yl)-N-(2-oxopyrrolidin-3-yl)thiazole-5-carboxamide] | 1020 to 10000 nM
Cc1cnn(-c2ncc(C(=O)N[C@H]3CCNC3=O)s2)c1 [Example 31, (S)-2-(4-Methyl-1H-pyrazol-1-yl)-N-(2-oxopyrrolidin-3-yl)thiazole-5-carboxamide] | 1020 to 10000 nM
O=C(N[C@H]1CCNC1=O)c1cnc(-c2cccc(C(F)(F)F)c2)s1 [Example 4, (S)-N-(2-Oxopyrrolidin-3-v)-2-(3-(trifluoromethyl)phenyl)thiazole-5-carboxamide] | 10.2 to 100 nM
CC1(NC(=O)c2cnc(-c3cc(F)cc(Cl)c3)s2)CCNC1=O (racemic) [Example 71, Racemic 2-(3-Chloro-5-fluorophenyl)-N-(3-methyl-2-oxopyrrolidin-3-yl)thiazole-5-carboxamide] | 102 to 1000 nM
Cc1ccnc(-c2ncc(C(=O)N[C@H]3CCNC3=O)s2)n1 [Example 42, (S)-2-(4-Methylpyrimidin-2-yl)-N-(2-oxopyrrolidin-3-yl)thiazole-5-carboxamide] | 102 to 1000 nM
C[C@H]1C[C@@H](NC(=O)c2cnc(-c3cc(F)cc(Cl)c3)s2)C(=O)N1 [Example 41, 2-(3-Chloro-5-fluorophenyl)-N-((3R,5S)-5-methyl-2-oxopyrrolidin-3-yl)thiazole-5-carboxamide] | 10.2 to 100 nM
O=C(N[C@H]1CCNC1=O)c1cnc(-c2ccncc2)s1 [Example 38, (S)-N-(2-Oxopyrrolidin-3-yl)-2-(pyridin-4-yl)thiazole-5-carboxamide] | 1020 to 10000 nM
CN1CCC(NC(=O)c2cnc(-c3cc(F)cc(Cl)c3)s2)C1=O (racemic) [Example 63, Racemic 2-(3-Chloro-5-fluorophenyl)-N-(1-methyl-2-oxopyrrolidin-3-yl)thiazole-5-carboxamide] | 10.2 to 100 nM
CN1CC[C@H](NC(=O)c2cnc(-c3cc(F)cc(Cl)c3)s2)C1=O [Example 64, (S)-2-(3-Chloro-5-fluorophenyl)-N-(1-methyl-2-oxopyrrolidin-3-yl)thiazole-5-carboxamide] | 10.2 to 100 nM
C[C@H]1CNC(=O)[C@H]1NC(=O)c1cnc(-c2cc(F)cc(Cl)c2)s1 [Example 75, 2-(3-Chloro-5-fluorophenyl)-N-((3S,4S)-4-methyl-2-oxopyrrolidin-3-yl)thiazole-5-carboxamide] | 10.2 to 100 nM
O=C(NC1CC2(CCC2)NC1=O)c1cnc(-c2cc(F)cc(Cl)c2)s1 (racemic) [Example 27, Racemic 2-(3-Chloro-5-fluorophenyl)-N-(6-oxo-5-azaspiro[3.4]octan-7-v)thiazole-5-carboxamide] | 10.2 to 100 nM
O=C(N[C@H]1C(=O)N[C@@H]2CCC[C@@H]21)c1cnc(-c2cc(F)cc(Cl)c2)s1 (racemic) [Example 49, Racemic 2-(3-Chloro-5-fluorophenyl)-N-((3R,3aS,6aR)-2-oxooctahydrocyclopenta[b]pyrrol-3-yl)thiazole-5-carboxamide; and 2-(3-Chloro-5-fluorophenyl)-N-((3S,3aR,6aS)-2-oxooctahydrocyclopenta[b]pyrrol-3-yl)thiazole-5-carboxamide] | 1.02 to 10 nM
CC1(C)CC(NC(=O)c2cnc(-c3cc(F)cc(Cl)c3)s2)C(=S)N1 (racemic) [Example 83, Racemic 2-(3-Chloro-5-fluorophenyl)-N-(5,5-dimethyl-2-thioxopyrrolidin-3-yl)thiazole-5-carboxamide] | 1.02 to 10 nM
O=C(N[C@H]1CCNC1=[Se])c1cnc(-c2cc(F)cc(Cl)c2)s1 [Example 78, (S)-2-(3-chloro-5-fluorophenyl)-N-(2-selenoxopyrrolidin-3-yl)thiazole-5-carboxamide] | 1.02 to 10 nM
O=C(N[C@@H]1CC2(CCC2)NC1=O)c1cnc(-c2cc(F)cc(Cl)c2)s1 [Example 28, (R)-2-(3-Chloro-5-fluorophenyl)-N-(6-oxo-5-azaspiro[3.4]octan-7-yl)thiazole-5-carboxamide] | 102 to 1000 nM
C[C@]1(NC(=O)c2cnc(-c3cc(F)cc(Cl)c3)s2)CCNC1=O [Example 72, (S)-2-(3-Chloro-5-fluorophenyl)-N-(3-methyl-2-oxopyrrolidin-3-yl)thiazole-5-carboxamide] | 10.2 to 100 nM
C[C@@H]1CNC(=O)[C@@H]1NC(=O)c1cnc(-c2cc(F)cc(Cl)c2)s1 [Example 76, 2-(3-Chloro-5-fluorophenyl)-N-((3R,4R)-4-methyl-2-oxopyrrolidin-3-yl)thiazole-5-carboxamide] | 1020 to 10000 nM
O=C(N[C@H]1CCNC1=O)c1cnc(-c2cccc(O)c2)s1 [Example 69, (S)-2-(3-Hydroxyphenyl)-N-(2-oxopyrrolidin-3-yl)thiazole-5-carboxamide] | 10.2 to 100 nM
O=C1NCC[C@@H]1NS(=O)(=O)c1cnc(-c2ccccc2)s1 [Example 86, (S)-N-(2-Oxopyrrolidin-3-yl)-2-phenylthiazole-5-sulfonamide] | > 10000 nM
C[C@H]1[C@H](C)NC(=O)[C@@H]1NC(=O)c1cnc(-c2cc(F)cc(Cl)c2)s1 [Example 35, 2-(3-Chloro-5-fluorophenyl)-N-((3R,4S,5S)-4,5-dimethyl-2-oxopyrrolidin-3-yl)thiazole-5-carboxamide] | 102 to 1000 nM
C[C@@H]1CNC(=O)[C@H]1NC(=O)c1cnc(-c2cc(F)cc(Cl)c2)s1 [Example 11, 2-(3-Chloro-5-fluorophenyl)-N-((3S,4R)-4-methyl-2-oxopyrrolidin-3-yl)thiazole-5-carboxamide] | 1.02 to 10 nM
O=C(N[C@H]1C(=O)N[C@H]2CCC[C@H]21)c1cnc(-c2cc(F)cc(Cl)c2)s1 (racemic) [Example 58, Racemic 2-(3-Chloro-5-fluorophenyl)-N-((3R,3aR,6aS)-2-oxooctahydrocyclopenta[b]pyrrol-3-yl)thiazole-5-carboxamide; and 2-(3-Chloro-5-fluorophenyl)-N-((3S,3aS,6aR)-2-oxooctahydrocyclopenta[b]pyrrol-3-yl)thiazole-5-carboxamide] | 10.2 to 100 nM
Cc1ccnc(-c2ncc(C(=O)N[C@H]3CCNC3=O)s2)c1 [Example 47, (S)-2-(4-Methylpyridin-2-yl)-N-(2-oxopyrrolidin-3-yl)thiazole-5-carboxamide] | 10.2 to 100 nM
O=C(NN1CCNC1=O)c1cnc(-c2cc(F)cc(Cl)c2)s1 [Example 79, 2-(3-Chloro-5-fluorophenyl)-N-(2-oxoimidazolidin-1-yl)thiazole-5-carboxamide] | 10.2 to 100 nM
